The supplement of paper PMC11451515

Tested on: SEM cells
Assay: cell viability relative to DMSO control; higher = less cytotoxic
Settings: 48 h
Procedure, shortened: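 Cells were incubated for 48 h at 37°C before CellTiter-Glo One luminescence was read. The cells were NOMO1 or SEM (500 cells/well) or P12-Ichikawa (1000 cells/well) leukemia cells, adapted for at least four passages in each medium and seeded in 1536-well plates (5 μl). Dosing used library compounds in DMSO applied by pin over 11 threefold points, 47 μM to 0.79 nM. Viability is the per-plate percentage of DMSO wells, with cell-free wells as background.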

[1] = HPLM + 10% dialyzed FBS, 0.000781 µM
[2] = HPLM + 10% dialyzed FBS, 0.00234 µM
[3] = HPLM + 10% dialyzed FBS, 0.00702 µM
[4] = HPLM + 10% dialyzed FBS, 0.0211 µM
[5] = HPLM + 10% dialyzed FBS, 0.0632 µM
[6] = HPLM + 10% dialyzed FBS, 0.19 µM
[7] = HPLM + 10% dialyzed FBS, 0.569 µM
[8] = HPLM + 10% dialyzed FBS, 1.71 µM
[9] = HPLM + 10% dialyzed FBS, 5.12 µM
[10] = HPLM + 10% dialyzed FBS, 15.4 µM
[11] = HPLM + 10% dialyzed FBS, 46.1 µM
[12] = RPMI 5 mM glucose + 10% FBS, 0.000781 µM
[13] = RPMI 5 mM glucose + 10% FBS, 0.00234 µM
[14] = RPMI 5 mM glucose + 10% FBS, 0.00702 µM
[15] = RPMI 5 mM glucose + 10% FBS, 0.0211 µM
[16] = RPMI 5 mM glucose + 10% FBS, 0.0632 µM
[17] = RPMI 5 mM glucose + 10% FBS, 0.19 µM
[18] = RPMI 5 mM glucose + 10% FBS, 0.569 µM
[19] = RPMI 5 mM glucose + 10% FBS, 1.71 µM
[20] = RPMI 5 mM glucose + 10% FBS, 5.12 µM
[21] = RPMI 5 mM glucose + 10% FBS, 15.4 µM
[22] = RPMI 5 mM glucose + 10% FBS, 46.1 µM
[23] = RPMI 5 mM glucose + 10% dialyzed FBS, 0.000781 µM
[24] = RPMI 5 mM glucose + 10% dialyzed FBS, 0.00234 µM
[25] = RPMI 5 mM glucose + 10% dialyzed FBS, 0.00702 µM
[26] = RPMI 5 mM glucose + 10% dialyzed FBS, 0.0211 µM
[27] = RPMI 5 mM glucose + 10% dialyzed FBS, 0.0632 µM
[28] = RPMI 5 mM glucose + 10% dialyzed FBS, 0.19 µM
[29] = RPMI 5 mM glucose + 10% dialyzed FBS, 0.569 µM
[30] = RPMI 5 mM glucose + 10% dialyzed FBS, 1.71 µM
[31] = RPMI 5 mM glucose + 10% dialyzed FBS, 5.12 µM
[32] = RPMI 5 mM glucose + 10% dialyzed FBS, 15.4 µM
[33] = RPMI 5 mM glucose + 10% dialyzed FBS, 46.1 µM

Row | SMILES | cell viability [1] | cell viability [2] | cell viability [3] | cell viability [4] | cell viability [5] | cell viability [6] | cell viability [7] | cell viability [8] | cell viability [9] | cell viability [10] | cell viability [11] | cell viability [12] | cell viability [13] | cell viability [14] | cell viability [15] | cell viability [16] | cell viability [17] | cell viability [18] | cell viability [19] | cell viability [20] | cell viability [21] | cell viability [22] | cell viability [23] | cell viability [24] | cell viability [25] | cell viability [26] | cell viability [27] | cell viability [28] | cell viability [29] | cell viability [30] | cell viability [31] | cell viability [32] | cell viability [33]
1 | CC(=O)[C@H]1CC[C@H]2[C@@H]3C/C=C4/C[C@@H](O)CC[C@]4(C)[C@H]3CC[C@]12C | 100% | 91.7% | 96.8% | 103% | 113% | 115% | 114% | 106% | 113% | 114% | 115% | 113% | 116% | 126% | 117% | 124% | 116% | 126% | 121% | 123% | 118% | 119% |  |  |  |  |  |  |  |  |  |  | 
2 | c1cc(N[C@@H]2CCNC2)nc(-c2cnc3ccc(-c4cn[nH]c4)cn23)c1 | 105% | 109% | 136% | 134% | 106% | 98.6% | 81.5% | 78.8% | 74% | 76.5% | 67.2% |  |  |  |  |  |  |  |  |  |  |  |  |  |  |  |  |  |  |  |  |  | 
3 | COC1=CC=CC(=C1/C2=N/CC3=C(N=C(NC4=CC(=C(C=C4)C(O)=O)OC)N=C3)C5=CC=C(Cl)C=C25)F | 83.2% | 75.2% | 93.3% | 79.7% | 65.7% | 26% | 25.3% | 33.1% | 28.9% | 25.8% | 23.4% | 91.7% | 84.3% | 85.4% | 85.4% | 68.7% | 16.6% | 18.1% | 16.5% | 18.9% | 14% | 16.4% | 75.5% | 80.7% | 82.2% | 88.8% | 54% | 20.2% | 21.1% | 24% | 23.9% | 15.7% | 17.8%
4 | CCCCCCCN(CC)CCCC(O)c1ccc(NS(C)(=O)=O)cc1.CCCCCCCN(CC)CCCC(O)c1ccc(NS(C)(=O)=O)cc1.O=C(O)/C=C/C(=O)O (configuration not stated) | 88.9% | 93.2% | 95.1% | 104% | 74.8% | 109% | 96.7% | 108% | 97.7% | 114% | 15% | 83.9% | 102% | 93.3% | 90.7% | 56.4% | 95.4% | 88.9% | 122% | 96.5% | 94% | 10.3% | 87.4% | 99.9% | 105% | 103% | 74.6% | 90.6% | 112% | 114% | 94.2% | 91.9% | 11.6%
5 | CC[P](CC)(CC)=[Au][S][C@@H]1O[C@H](COC(C)=O)[C@@H](OC(C)=O)[C@H](OC(C)=O)[C@H]1OC(C)=O |  |  |  |  |  |  |  |  |  |  |  | 106% | 120% | 117% | 122% | 115% | 108% | 89.8% | 5.13% | 4.94% | 3.95% | 3.2% | 111% | 106% | 93.8% | 108% | 106% | 113% | 103% | 5.2% | 5.93% | 4.45% | 2.9%
6 | N#C[C@@H]1C[C@@H]2C[C@@H]2N1C(=O)[C@@H](N)C12CC3CC(CC(O)(C3)C1)C2 |  |  |  |  |  |  |  |  |  |  |  | 113% | 109% | 105% | 104% | 108% | 96.6% | 102% | 87.5% | 79% | 82.2% | 79.4% | 118% | 115% | 110% | 110% | 111% | 110% | 115% | 108% | 108% | 117% | 94.5%
7 | CNC(=O)c1cc(COc2nnc(Nc3ccc(Cl)cc3)c3ccoc23)ccn1 | 108% | 112% | 102% | 110% | 121% | 97.9% | 96% | 108% | 102% | 79.9% | 61.2% | 124% | 124% | 110% | 124% | 117% | 127% | 128% | 129% | 97.1% | 95% | 64.7% | 96.6% | 108% | 90.4% | 99% | 95.4% | 104% | 102% | 86.1% | 88.4% | 70.4% | 47.9%
8 | CN1CCC(=C2c3ccccc3CCc3sccc32)CC1 | 75.4% | 85% | 107% | 94.1% | 101% | 109% | 93.3% | 111% | 102% | 95.8% | 51.1% | 81.8% | 104% | 97.4% | 106% | 96.1% | 113% | 111% | 120% | 97.3% | 117% | 82.1% | 82.5% | 110% | 114% | 99.5% | 104% | 118% | 122% | 111% | 124% | 108% | 68.3%
9 | Cc1ccc(C)c(OCCCC(C)(C)C(=O)O)c1 | 83.8% | 81.2% | 99.6% | 85.3% | 97.3% | 94.9% | 92.5% | 92.7% | 92.6% | 98.5% | 96.8% | 97.1% | 87.2% | 87.9% | 97.9% | 94.8% | 103% | 88.7% | 93.9% | 103% | 103% | 92.1% | 91% | 104% | 93.1% | 90.7% | 104% | 91.9% | 102% | 87.1% | 99.5% | 108% | 95.5%
